According to patent US8039488B2, “Methods and compositions for inhibition of angiogenesis” (Children's Medical Center Corporation, priority 1996, dated 2011):

Legend:
[1] = tested on: chick embryo chorioallantoic membrane; test: Chick embryo chorioallantoic membrane (CAM) assay; assay type: in vivo; conditions: examined 48 hours after implantation
Text: The chick embryo chorioallantoic membrane assay described by Crum et al., Science 230:1375 et seq. […] See also, U.S. Pat. No. 5,001,116, hereby incorporated by reference, which describes the CAM assay at col. 7 of the patent. Briefly, fertilized chick embryos were removed from their shell on day 3 or 4, and a methylcellulose disc containing the compound was implanted on the chorioallantoic membrane.

[2] = tested on: bFGF induced corneal neovascularization; test: Rabbit cornea angiogenesis assay; assay type: in vivo
Description: (§1) Pellets for implantation into rabbit corneas were made by mixing 110 μl of saline containing 12 μg of recombinant bFGF (Takeda Pharmaceuticals-Japan) with 40 mg of sucralfate (Bukh Meditec-Denmark); this suspension was added to 80 μl of 12% hydron (Interferon Sciences) in ethanol. 10 μl aliquots of this mixture was then pipetted onto Teflon pegs and allowed to dry producing approximately 17 pellets. A pellet was implanted into corneal micropockets of each eye of an anesthetized female New Zealand white rabbit, 2 mm from the limbus followed by topical application of erythromycin ointment onto the surface of the cornea. The animals were fed daily from 2 days post-implantation by gastric lavage with either drug suspended in 0.5% carboxymethyl cellulose or 0.5% carboxymethyl cellulose alone. Thalidomide was purchased from Andrulus Pharmaceutical (Maryland) and the EM-12 and Supidimide were kindly provided by Grunenthal GMBH (Germany). The animals were examined with a slit lamp every other day in a masked manner by the same corneal specialist. The area of corneal neovascularization was determined by measuring with a reticule the vessel length (L) from the limbus and the number of clock hours (C) of limbus involved. A formula was used to determine the area of a circular band segment: C/12*3.1416 [r^2−(r−L)^2] where r=6 mm the measured radius of the rabbit cornea.
Pellets containing bFGF and sucralfate were implanted into micropockets of both corneas of rabbits according to Example II. Vessel ingrowth into clear cornea from the limbus was first noted on day 2 and treatments (200 mg/kg orally) were begun on this day. The area of corneal neovascularization was measured from day 4 through day 12. Day 8 measurements were used for comparison between groups. […] Statistical analysis was performed with ANOVA with ranked data to account for interexperimental variation and to guard against a non-normal distribution of data (i.e. outliers) by utilizing a nonparametric method.

[3] = tested on: bFGF induced angiogenesis; test: Angiogenesis in the eye, assay described in Example 2, bFGF; assay type: in vivo, rabbit
Description: (§2) Angiogenesis in the eye, in the assay described in Example 2, is produced by the presence of bFGF (basic fibroblastic growth factor) and VEGF (vascular endothelial cell growth factor).
as §1

[4] = tested on: bFGF induced angiogenesis; test: Mouse corneal micropocket assay, bFGF pellets; assay type: in vivo, mice; conditions: for inhibition in vivo at 100 mg/kg: dose 100 mg/kg once daily, area of corneal neovascularization vs controls; for inhibition in vivo at 200 mg/kg: dose 200 mg/kg once daily; for inhibition of bFGF induced neovascularization: dose not given
Description: (§3) Six to eight week old C57B 16 male mice were obtained from Jackson Laboratories, MA. The mice were anesthetized, and 0.4×0.4 mm pockets were made in the stroma of the mouse cornea adjacent to the limbus. Pellets containing 80 ng of either bFGF or VEGF were implanted in the pellets. The pellets containing bFGF were implanted 1.0-1.2 mm from the limbal vessels, while the pellets containing VEGF were implanted 0.5-0.7 mm from the limbal vessels. Erythromycin was then topically applied.
(§4) The vascular response to the pellets was measured by maximal vessel length and number of clock hours of neovascularization 5 days after implantation of the bFGF pellets and 6 days after implantation of the VEGF pellets. The area of corneal neovascularization was calculated using the following formula which best approximated the area of neovascularization: Area (mm^2)=[π×clock hours×length (mm)×0.2 (mm)].
(§5) Inhibitory effect is expressed in percentage representing the area of corneal neovascularization by either bFGF or VEGF compared to controls (n=8/experiment) of the experiments in which that particular drug was tested. N=the number of eyes that were tested and drugs were given once daily either sc, ip or oral as described.
as §3, with “implanted.” for “implanted in the pellets.”
as §4, with “The mice were then treated with thalidomide, indomethacin, sulindac, or combinations of thalidomide with either indomethacin or sulindac. The vascular” for “The vascular”, “which best approximates the area” for “which best approximated the area”
Six to eight week old C57B16 male mice, obtained from Jackson Laboratories, MA, were anesthetized, and 0.4×0.4 mm pockets were made in the stroma of the mouse cornea adjacent to the limbus. Pellets containing 80 ng of bFGF were implanted 1.0-1.2 mm from the limbal vessels. Erythromycin was then topically applied.
(§6) The mice were then treated with sulindac, or one of the sulindac derivatives, sulindac sulfone or sulindac sulfide. The vascular response to the pellets was measured by maximal vessel length and number of clock hours of neovascularization 5 days after implantation of the bFGF pellets. The area of corneal neovascularization was calculated using the following formula which best approximates the area of neovascularization: Area (mm^2)=[π×clock hours×length (mm)×0.2 (mm)].
Inhibitory effect is expressed in percentage representing the area of corneal neovascularization by bFGF compared to controls (n=8/experiment. N=the number of eyes that were tested and drugs were given once daily either sc, ip or oral as described.

[5] = tested on: VEGF induced angiogenesis; test: Angiogenesis in the eye, assay described in Example 2, VEGF; assay type: in vivo, rabbit
Description: as §2, §1

[6] = tested on: bFGF induced corneal neovascularization; test: Rabbit cornea angiogenesis assay; assay type: in vivo; conditions: 100 mg/kg/day
[7] = tested on: VEGF induced angiogenesis; test: Mouse corneal micropocket assay, VEGF pellets; assay type: in vivo, mice; conditions: 6 days after implantation
Description: as §3, §4, §5
as §3, with “implanted.” for “implanted in the pellets.”
as §6, with “with thalidomide, indomethacin,” for “with”, “combinations” for “one”, “thalidomide with either indomethacin” for “the sulindac derivatives, sulindac sulfone”, “sulindac.” for “sulindac sulfide.”, “bFGF pellets and 6 days after implantation of the VEGF” for “bFGF”

V2-carcinoma = V2-carcinoma tumor assay in rabbits; assay type: in vivo, rabbit; conditions: 17 days after start of treatment
Description: New Zealand White female rabbits, weighing approximately 1.5 kg, obtained from Charles River, Mass., were used for propagating the V2-carcinoma. This tumor originates from a Shope virus-induced papilloma. Small 0.5×0.5 cm pieces were implanted intramuscularly in the right thigh. Treatment with 200 mg/kg/day thalidomide (n=14), 60 mg/kg/day sulindac (n=5), or a combination of thalidomide and sulindac (n=10) was started at day 10 after tumor implantation, when the mean volume of the tumor was 6 cm^3. The control animals (n=13) were treated with methylcellulose. […] The data were collected in 3 separate experiments and each bar represents the standard error of the mean.

Crohn's disease = test: Treatment of a patient with Crohn's disease; assay type: in vivo, human; conditions: 100 mg twice a day orally, one week
Description: A patient with Crohn's disease was treated using the methods of the present invention. […] Thalidomide was orally administered to them at a dosage of 100 mg twice a day.

[8] = Mus musculus, 120 h, 5 days after implantation
[9] = Mus musculus, 120 h, dose 25 mg/kg once daily, 5 days after implantation

O=C(O)CCC(C(=O)O)N1C(=O)c2ccccc2C1=O (racemic) [Phthaloyl glutamic acid, N-phthaloyl-DL-glutamic acid]
CAM assay result (avascular zone around the methylcellulose disc) [1]: avascular zone with a mild scar | inhibition of angiogenesis in the rabbit cornea assay ([2]; 200 mg/kg): 29% | inhibitory activity on corneal neovascularization, in words ([2]; 200 mg/kg orally): weaker inhibitory effects than thalidomide

CO[C@@H]1[C@H](OC(=O)NC(=O)CCl)CC[C@]2(CO2)[C@H]1[C@@]1(C)O[C@@H]1CC=C(C)C [AGM 1470]
% Inhibition of bFGF induced angiogenesis ([3]; dose 30 mg/kg qod): 48%

CC(=O)Nc1ccc(O)cc1 [Acetaminophen]
inhibition in vivo at 100 mg/kg [4, 8]: 0% | % Inhibition of VEGF induced angiogenesis ([5]; dose 100 mg/kg): 0% | % Inhibition of bFGF induced angiogenesis ([3]; dose 100 mg/kg): 0%

CC(=O)Oc1ccccc1C(=O)O [Aspirin, aspirin]
% Inhibition of bFGF induced angiogenesis ([3]; dose 100 mg/kg): 8%

O=C1CCC(N2Cc3ccccc3C2=O)C(=O)N1 (stereo not shown) [EM-12]
median inhibition of the area of vascularized cornea ([2]; 200 mg/kg orally, day 8): 42% | % inhibition in the rabbit cornea assay ([2]; 200 mg/kg/day): 43% | % inhibition in the rabbit cornea assay [6]: 21%

O=c1ccc2cc(O)c(O)cc2o1 [Esculetin, esculetin]
inhibition in vivo at 200 mg/kg [4, 8]: 15%

C[C@]12CCC(=O)C=C1CC[C@@H]1[C@@H]2[C@@H](O)C[C@@]2(C)[C@H]1CC[C@]2(O)C(=O)CO [Hydrocortisone, hydrocortisone]
% Inhibition of VEGF induced angiogenesis ([5]; dose 20 mg/kg): 40% | % Inhibition of bFGF induced angiogenesis ([3]; dose 20 mg/kg): 50%

CC(C)Cc1ccc(C(C)C(=O)O)cc1 (stereo not shown) [Ibuprofen, ibuprofen]
inhibition in vivo at 25 mg/kg [4, 9]: 6% | % Inhibition of VEGF induced angiogenesis ([5]; dose 20 mg/kg): 11% | % Inhibition of VEGF induced angiogenesis ([7]; dose 25 mg/kg once daily): 8% | % Inhibition of bFGF induced angiogenesis ([3]; dose 20 mg/kg): 7%

COc1ccc2c(c1)c(CC(=O)O)c(C)n2C(=O)c1ccc(Cl)cc1 [Indomethacin, indomethacin]
inhibition in vivo at 5 mg/kg ([4]; Mus musculus, 120 h, dose 5 mg/kg once daily, 5 days after implantation): 59% | % Inhibition of VEGF induced angiogenesis ([7]; dose 5 mg/kg once daily): 61%

C[C@H](Cc1ccc(O)c(O)c1)[C@@H](C)Cc1ccc(O)c(O)c1 [NDGA, nordihydroguiaretic acid]
inhibition in vivo at 25 mg/kg [4, 9]: 30%

CS(=O)(=O)Nc1ccc([N+](=O)[O-])cc1OC1CCCCC1 [NS-398]
inhibition of bFGF induced neovascularization [4]: 25%

O=C1CCC(N2C(=O)c3ccccc3C2=O)C(=O)O1 (stereo not shown) [PGA]
inhibitory activity on corneal neovascularization, in words ([2]; 200 mg/kg orally): weaker inhibitory effects than thalidomide

O=C1CCN(c2ccccc2)N1 [Phenidone, phenidone]
inhibition in vivo at 100 mg/kg [4, 8]: 17%

O=c1c(O)c(-c2ccc(O)c(O)c2)oc2cc(O)cc(O)c12 [Quercetin, quercetin]
inhibition in vivo at 300 mg/kg ([4]; Mus musculus, 120 h, dose 300 mg/kg once daily, 5 days after implantation): 18%

CCCC(C(=O)OCCN(CC)CC)(c1ccccc1)c1ccccc1.Cl [SKF525AHCL]
inhibition of bFGF induced neovascularization [4]: 25%

CSc1ccc(/C=C2/C(C)=C(CC(=O)O)c3cc(F)ccc32)cc1 [Sulindac sulfide, sulindac sulfide]
inhibition in vivo at 25 mg/kg [4, 9]: 31% | % inhibition ([4]; dose 50 mg/kg once daily, bFGF pellets, 5 days after implantation): 34% | inhibition of bFGF induced neovascularization [4]: 34%

CC1=C(CC(=O)O)c2cc(F)ccc2/C1=C\c1ccc(S(C)(=O)=O)cc1 [Sulindac sulfone, sulindac sulfone]
% Inhibition of bFGF induced angiogenesis ([4]; dose 25 mg/kg once daily, 5 days after implantation): 31% | inhibition of bFGF induced neovascularization [4]: 31%

CC1=C(CC(=O)O)c2cc(F)ccc2/C1=C\c1ccc([S+](C)[O-])cc1 (stereo not shown) [Sulindac, (Z)-5-Fluoro-2-methyl-1-[[4-(methyl-sulfinyl)phenyl]methylene]-1H-indene-3-acetic acid]
inhibition in vivo at 25 mg/kg [4, 9]: 50% | % Inhibition of VEGF induced angiogenesis ([5]; dose 25 mg/kg): 54% | inhibition of tumor growth (V2-carcinoma; 60 mg/kg/day oral): 35% | % Inhibition of VEGF induced angiogenesis ([7]; dose 25 mg/kg once daily): 55% | % Inhibition of bFGF induced angiogenesis ([3]; dose 25 mg/kg): 52%

O=C1CCC(N2C(=O)c3ccccc3S2(=O)=O)C(=O)N1 (stereo not shown) [Supidimide]
inhibitory activity on corneal neovascularization, in words ([2]; 200 mg/kg orally): no activity | area of corneal neovascularization, % of control ([2]; 200 mg/kg orally, day 8): 107 % of control

O=C1CCC(N2C(=O)c3ccccc3C2=O)C(=O)N1 (stereo not shown) [Thalidomide, thalidomide]
gastrointestinal symptoms, including diarrhea and cramping (Crohn's disease): lessened | skin lesion on the lower leg (Crohn's disease): resolved | inhibition in vivo at 200 mg/kg [4, 8]: 41% | % Inhibition of VEGF induced angiogenesis ([5]; dose 200 mg/kg): 44% | inhibition of tumor growth (V2-carcinoma; 200 mg/kg/day oral): 55% | density of vessel ingrowth ([2]; 200 mg/kg orally): markedly reduced | sedation of the rabbits ([2]; 200 mg/kg orally): did not demonstrate obvious sedation | onset of inhibition of angiogenesis ([2]; 200 mg/kg orally (FIG. 7)): after only two doses | inhibition of the area of vascularized cornea, range in three experiments ([2]; 200 mg/kg orally, day 8): 30-51% | median inhibition of the area of vascularized cornea ([2]; 200 mg/kg orally, day 8): 36% | % Inhibition of VEGF induced angiogenesis ([7]; dose 200 mg/kg once daily): 40% | % Inhibition of bFGF induced angiogenesis ([3]; dose 200 mg/kg): 42%

O=C(O)c1cc2cc(Cc3cccnc3)ccc2o1 [furegrelate sodium]
inhibition of bFGF induced neovascularization [4]: 22%

carbomethylheptyl imidazole
inhibition of bFGF induced neovascularization [4]: 32%
